Assay results from PubChem BioAssay (NCI).
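Compound exposure: 48 hours, 5 concentrations, 96-well plates. GI50 is the concentration that inhibits growth by half. TGI is the concentration that stops growth completely.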

How the values were obtained:
Assay in all cases: DTP human tumour cell line panel, 48 h
MOLT-4 leukemia = tested on: MOLT-4 leukemia
SN12C renal = tested on: SN12C renal
UO-31 renal = tested on: UO-31 renal
PC-3 prostate = tested on: PC-3 prostate
NCI-H23 lung = tested on: NCI-H23 lung
RPMI-8226 leukemia = tested on: RPMI-8226 leukemia
786-0 renal = tested on: 786-0 renal
COLO 205 colon = tested on: COLO 205 colon
TK-10 renal = tested on: TK-10 renal
DU-145 prostate = tested on: DU-145 prostate
HOP-92 NSCLC = tested on: HOP-92 NSCLC
OVCAR-8 ovarian = tested on: OVCAR-8 ovarian
HS 578T breast = tested on: HS 578T breast
CAKI-1 renal = tested on: CAKI-1 renal
SK-MEL-5 melanoma = tested on: SK-MEL-5 melanoma
SK-MEL-2 melanoma = tested on: SK-MEL-2 melanoma
SF-295 CNS = tested on: SF-295 CNS
RXF 393 renal = tested on: RXF 393 renal
BT-549 breast = tested on: BT-549 breast
SF-268 CNS = tested on: SF-268 CNS
NCI-H522 lung = tested on: NCI-H522 lung
KM12 colon = tested on: KM12 colon
SK-OV-3 ovarian = tested on: SK-OV-3 ovarian
NCI/ADR-RES ovarian = tested on: NCI/ADR-RES ovarian
A498 renal = tested on: A498 renal
T-47D breast = tested on: T-47D breast
MDA-MB-435 = tested on: MDA-MB-435
SK-MEL-28 melanoma = tested on: SK-MEL-28 melanoma

CC[PH+](CC)CC.O=COC1OC([S-])C(OC=O)C(OC=O)C1OC=O.[Au+] (stereo not given)
GI50 (MOLT-4 leukemia): 2200 nM
TGI (MOLT-4 leukemia): 7610 nM
GI50 (SN12C renal): 1440 nM
TGI (SN12C renal): 2750 nM
GI50 (UO-31 renal): 1690 nM
TGI (UO-31 renal): 3050 nM
GI50 (PC-3 prostate): 1660 nM
TGI (PC-3 prostate): 3540 nM
GI50 (NCI-H23 lung): 1470 nM
TGI (NCI-H23 lung): 3220 nM
GI50 (RPMI-8226 leukemia): 1350 nM
TGI (RPMI-8226 leukemia): 5070 nM
GI50 (786-0 renal): 1510 nM
TGI (786-0 renal): 2850 nM
GI50 (COLO 205 colon): 2230 nM
TGI (COLO 205 colon): 4700 nM
GI50 (TK-10 renal): 1740 nM
TGI (TK-10 renal): 3390 nM
GI50 (DU-145 prostate): 1580 nM
TGI (DU-145 prostate): 3330 nM
GI50 (HOP-92 NSCLC): 2040 nM
TGI (HOP-92 NSCLC): 3660 nM
GI50 (OVCAR-8 ovarian): 2130 nM
TGI (OVCAR-8 ovarian): 5550 nM
GI50 (HS 578T breast): 775 nM
TGI (HS 578T breast): 4760 nM
GI50 (CAKI-1 renal): 1710 nM
TGI (CAKI-1 renal): 3080 nM
GI50 (SK-MEL-5 melanoma): 1270 nM
TGI (SK-MEL-5 melanoma): 2630 nM
GI50 (SK-MEL-2 melanoma): 1470 nM
TGI (SK-MEL-2 melanoma): 3380 nM
GI50 (SF-295 CNS): 1800 nM
TGI (SF-295 CNS): 3240 nM
GI50 (RXF 393 renal): 1350 nM
TGI (RXF 393 renal): 2720 nM
GI50 (BT-549 breast): 1250 nM
TGI (BT-549 breast): 2540 nM
GI50 (SF-268 CNS): 1170 nM
TGI (SF-268 CNS): 3150 nM
GI50 (NCI-H522 lung): 1170 nM
TGI (NCI-H522 lung): 3970 nM
GI50 (KM12 colon): 1610 nM
TGI (KM12 colon): 3190 nM
GI50 (SK-OV-3 ovarian): 1850 nM
TGI (SK-OV-3 ovarian): 3360 nM
GI50 (NCI/ADR-RES ovarian): 2210 nM
TGI (NCI/ADR-RES ovarian): 5030 nM
GI50 (A498 renal): 1860 nM
TGI (A498 renal): 3290 nM
GI50 (T-47D breast): 1960 nM
TGI (T-47D breast): 6470 nM
GI50 (MDA-MB-435): 1430 nM
TGI (MDA-MB-435): 2970 nM
GI50 (SK-MEL-28 melanoma): 907 nM
